The results in this text go back to article PMC3849439, “Peptides Corresponding to the Predicted Heptad Repeat 2 Domain of the Feline Coronavirus Spike Protein Are Potent Inhibitors of Viral Infection” (PLoS ONE, 2013).

The subject of data set [1] is Feline coronavirus type II NTU156 strain. The following applies: for Inhibition of viral titer (%): highest concentration tested 20 μM, NTU156 MOI 0.1, fcwf-4 cells, triplicate wells; for IC50: NTU156 at MOI 0.1 preincubated with peptide 1 h, then on fcwf-4 cells 1 h, supernatant collected 48 h postinfection and titrated, CPE at 72 h, IC50 by interpolation.
The next data set relates to fcwf-4 cells. The data set can be described thus: MTT cytotoxicity assay. The following applies: 72 h at 37°C, 6.25-200 μM, absorbance 570 nm, triplicate. (In general: Tetrazolium dyes change colour on reduction, which living cells bring about.)
The test system of data set [2] is Feline coronavirus type II NTU156 strain. The data set can be described thus: Combination of FP5 with human IFN-α, viral titer by plaque reduction assay. It is filed as cell-based. The note with it: for Viral titer reduction, agent alone: supernatant collected after 48 h, triplicate. (Plaques are areas of infected cells; plaque reduction assays count them against a control.)

Entries after “also recorded” stand apart in the source; their conditions may differ.

For `CC[C@H](C)[C@H](NC(=O)[C@H](CCC(=O)O)NC(=O)CNC(=O)[C@@H](NC(=O)[C@H](CC(C)C)NC(=O)[C@H](CC(N)=O)NC(=O)[C@H](CC(C)C)NC(=O)[C@H](Cc1ccc(O)cc1)NC(=O)[C@@H](NC(=O)[C@H](C)NC(=O)[C@H](CC(N)=O)NC(=O)[C@@H](N)Cc1ccccc1)[C@@H](C)O)[C@@H](C)O)C(=O)N[C@@H](CC(=O)O)C(=O)N[C@@H](CC(=O)O)C(=O)N[C@@H](CC(C)C)C(=O)N[C@@H](CCC(=O)O)C(=O)N[C@@H](Cc1ccccc1)C(=O)N[C@@H](CCCNC(=N)N)C(=O)N[C@@H](CO)C(=O)N[C@@H](CCC(=O)O)C(=O)N[C@@H](CCCCN)C(=O)N[C@@H](CC(C)C)C(=O)O` [FP1], the “Inhibition of viral titer (%)” value in data set [1] was 27%. Also, in the data set on fcwf-4 cells, the CC50 result is recorded as “≧200 μM”.
Taken in the same sequence, the figures for `CC[C@H](C)[C@H](NC(=O)[C@H](CCC(=O)O)NC(=O)CNC(=O)[C@@H](NC(=O)[C@H](CC(C)C)NC(=O)[C@H](CC(N)=O)NC(=O)[C@H](CC(C)C)NC(=O)[C@H](Cc1ccc(O)cc1)NC(=O)[C@@H](NC(=O)[C@H](C)NC(=O)[C@H](CC(N)=O)NC(=O)[C@@H](N)Cc1ccccc1)[C@@H](C)O)[C@@H](C)O)C(=O)N[C@@H](CC(=O)O)C(=O)N[C@@H](CC(=O)O)C(=O)N[C@@H](CC(C)C)C(=O)N[C@@H](CCC(=O)O)C(=O)N[C@@H](Cc1ccccc1)C(=O)N[C@@H](CCCNC(=N)N)C(=O)N[C@@H](CO)C(=O)N[C@@H](CCC(=O)O)C(=O)N[C@@H](CCCCN)C(=O)N[C@@H](CC(C)C)C(=O)N[C@@H](Cc1c[nH]cn1)C(=O)N[C@@H](CC(N)=O)C(=O)N[C@H](C(=O)N[C@H](C(=O)N[C@H](C(=O)N[C@@H](CCC(=O)O)C(=O)N[C@@H](CC(C)C)C(=O)O)C(C)C)[C@@H](C)O)[C@@H](C)O` [FP2] were 29% and “≧200 μM”.
The term IC50 denotes the point on the concentration scale where inhibition reaches its midpoint. A lower IC50 goes with greater potency. Take `CC[C@H](C)[C@H](NC(=O)[C@H](CC(N)=O)NC(=O)[C@H](CC(=O)O)NC(=O)[C@@H](NC(=O)[C@H](CC(C)C)NC(=O)[C@@H](NC(=O)[C@H](C)NC(=O)[C@H](CC(C)C)NC(=O)[C@H](CCC(=O)O)NC(=O)[C@@H](NC(=O)[C@@H](NC(=O)[C@@H](NC(=O)[C@H](CC(N)=O)NC(=O)[C@H](Cc1c[nH]cn1)NC(=O)[C@H](CC(C)C)NC(=O)[C@H](CCCCN)NC(=O)[C@H](CCC(=O)O)NC(=O)[C@H](CO)NC(=O)[C@H](CCCNC(=N)N)NC(=O)[C@H](Cc1ccccc1)NC(=O)[C@H](CCC(=O)O)NC(=O)[C@H](CC(C)C)NC(=O)[C@H](CC(=O)O)NC(=O)[C@H](CC(=O)O)NC(=O)[C@@H](NC(=O)[C@H](CCC(=O)O)NC(=O)CNC(=O)[C@@H](NC(=O)[C@H](CC(C)C)NC(=O)[C@H](CC(N)=O)NC(=O)[C@H](CC(C)C)NC(=O)[C@H](Cc1ccc(O)cc1)NC(=O)[C@@H](NC(=O)[C@H](C)NC(=O)[C@H](CC(N)=O)NC(=O)[C@@H](N)Cc1ccccc1)[C@@H](C)O)[C@@H](C)O)[C@@H](C)CC)[C@@H](C)O)[C@@H](C)O)C(C)C)[C@@H](C)CC)[C@@H](C)CC)C(=O)O` [FP3]: in data set [1], 14.2 µM corresponded to half-maximal inhibition (IC50) and the “Inhibition of viral titer (%)” value amounted to 72%. Moreover, in the data set with fcwf-4 cells, the CC50 entry is on record as “≧200 μM”.
On the same counts, the results for `CC[C@H](C)[C@H](NC(=O)[C@H](C)NC(=O)[C@H](CC(C)C)NC(=O)[C@H](CCC(=O)O)NC(=O)[C@@H](NC(=O)[C@@H](NC(=O)[C@@H](NC(=O)[C@H](CC(N)=O)NC(=O)[C@H](Cc1c[nH]cn1)NC(=O)[C@H](CC(C)C)NC(=O)[C@H](CCCCN)NC(=O)[C@H](CCC(=O)O)NC(=O)[C@H](CO)NC(=O)[C@H](CCCNC(=N)N)NC(=O)[C@H](Cc1ccccc1)NC(=O)[C@H](CCC(=O)O)NC(=O)[C@H](CC(C)C)NC(=O)[C@H](CC(=O)O)NC(=O)[C@H](CC(=O)O)NC(=O)[C@@H](NC(=O)[C@H](CCC(=O)O)NC(=O)CNC(=O)[C@@H](NC(=O)[C@H](CC(C)C)NC(=O)[C@H](CC(N)=O)NC(=O)[C@H](CC(C)C)NC(=O)[C@H](Cc1ccc(O)cc1)NC(=O)[C@@H](NC(=O)[C@H](C)NC(=O)[C@H](CC(N)=O)NC(=O)[C@@H](N)Cc1ccccc1)[C@@H](C)O)[C@@H](C)O)[C@@H](C)CC)[C@@H](C)O)[C@@H](C)O)C(C)C)C(=O)N[C@@H](CC(C)C)C(=O)N[C@H](C(=O)N[C@@H](CC(=O)O)C(=O)N[C@@H](CC(N)=O)C(=O)N[C@H](C(=O)N[C@@H](CC(N)=O)C(=O)N[C@@H](CC(N)=O)C(=O)N[C@H](C(=O)N[C@@H](CC(C)C)C(=O)N[C@H](C(=O)N[C@@H](CC(N)=O)C(=O)N[C@@H](CC(C)C)C(=O)O)C(C)C)[C@@H](C)O)[C@@H](C)CC)[C@@H](C)CC` [FP4] are 1.8 µM, 93% and “≧200 μM”.
As for `CC[C@H](C)[C@H](NC(=O)[C@H](C)NC(=O)[C@H](CC(C)C)NC(=O)[C@H](CCC(=O)O)NC(=O)[C@@H](NC(=O)[C@@H](NC(=O)[C@@H](NC(=O)[C@H](CC(N)=O)NC(=O)[C@H](Cc1c[nH]cn1)NC(=O)[C@H](CC(C)C)NC(=O)[C@H](CCCCN)NC(=O)[C@H](CCC(=O)O)NC(=O)[C@H](CO)NC(=O)[C@H](CCCNC(=N)N)NC(=O)[C@H](Cc1ccccc1)NC(=O)[C@H](CCC(=O)O)NC(=O)[C@H](CC(C)C)NC(=O)[C@H](CC(=O)O)NC(=O)[C@H](CC(=O)O)NC(=O)[C@@H](NC(=O)[C@H](CCC(=O)O)NC(=O)CNC(=O)[C@@H](NC(=O)[C@H](CC(C)C)NC(=O)[C@H](CC(N)=O)NC(=O)[C@H](CC(C)C)NC(=O)[C@H](Cc1ccc(O)cc1)NC(=O)[C@@H](NC(=O)[C@H](C)NC(=O)[C@H](CC(N)=O)NC(=O)[C@@H](N)Cc1ccccc1)[C@@H](C)O)[C@@H](C)O)[C@@H](C)CC)[C@@H](C)O)[C@@H](C)O)C(C)C)C(=O)N[C@@H](CC(C)C)C(=O)N[C@H](C(=O)N[C@@H](CC(=O)O)C(=O)N[C@@H](CC(N)=O)C(=O)N[C@H](C(=O)N[C@@H](CC(N)=O)C(=O)N[C@@H](CC(N)=O)C(=O)N[C@H](C(=O)N[C@@H](CC(C)C)C(=O)N[C@H](C(=O)N[C@@H](CC(N)=O)C(=O)N[C@@H](CC(C)C)C(=O)N[C@@H](CCC(=O)O)C(=O)N[C@@H](Cc1c[nH]c2ccccc12)C(=O)N[C@@H](CC(C)C)C(=O)N[C@@H](CC(N)=O)C(=O)N[C@@H](CCCNC(=N)N)C(=O)N[C@H](C(=O)N[C@@H](CCC(=O)O)C(=O)O)[C@@H](C)CC)C(C)C)[C@@H](C)O)[C@@H](C)CC)[C@@H](C)CC` [FP5], the “Viral titer reduction, combination” value in data set [2] (20 μM FP5 with 10 to 1000 IU IFN-α, or 10 μM FP5 with 1000 IU IFN-α, NTU156 MOI 0.1, fcwf-4 cells, 48 h) was “up to 4.08 LogPFU/ml”. For the same compound, the “Inhibitory effect of the combination (in words)” value in data set [2] (20 μM FP5 with 10 to 1000 IU IFN-α, or 10 μM FP5 with 1000 IU IFN-α, two-way analysis of variance P < 0.05) is “complete inhibitory effect; also recorded: synergetic effects”; in data set [2] (10 units of IFN-α combined with 20 μM FP5), “complete inhibition”. Besides, in data set [2] (FP5 20 μM alone, NTU156 MOI 0.1, fcwf-4 cells), the “Viral titer reduction, agent alone” value came out at 1.81 LogPFU/ml. The compound further yielded a 50% inhibitory concentration (IC50) in data set [1] of 1.33 µM. For the same compound, the CC50 entry with fcwf-4 cells is on record as “≧200 μM”.
As for IFN-α, the “Viral titer reduction, agent alone” value in data set [2] (IFN-α 1000 IU alone, preincubated with cells 24 h, NTU156 MOI 0.1, fcwf-4 cells) is recorded as 1.46 LogPFU/ml.
